Structures can show the parent of a compound that is named as a salt. Non-standard residues stand in square brackets, D forms with d. Residues, ends and D or L forms follow the SMILES beside them. pGlu = O=C1CC[C@@H](C(=O)O)N1; Thz = O=C(O)[C@@H]1CSCN1
Assay: in vitro
Conditions: rat, gh3-tre-luc cells

N#CCc1ccccc1[N+](=O)[O-] [(2-Nitrophenyl)acetonitrile]
CC50 at 24 h (AC50 (uM) modified / 1000): > 90 µM

O=C1C[N+]([O-])=C(c2ccccc2)c2cc(Cl)ccc2N1 [Demoxepam]
CC50 at 24 h (AC50 (uM) modified / 1000, Tox21_110001=Tox21_111817, viability, 1 nM T3 present, 24 h): > 50 µM

NC(=O)CC[C@@H]1NC(=O)[C@H](Cc2ccccc2)NC(=O)[C@H](Cc2ccc(O)cc2)NC(=O)[C@@H](N)CSSC[C@@H](C(=O)N2CCC[C@H]2C(=O)N[C@@H](CCCN=C(N)N)C(=O)NCC(N)=O)NC(=O)[C@H](CC(N)=O)NC1=O [Argipressin acetate]
CC50 at 24 h (AC50 (uM) modified / 1000): > 50 µM

CS(=O)(=O)NC(=O)c1cc(Oc2ccc(C(F)(F)F)cc2Cl)ccc1[N+](=O)[O-] [Fomesafen]
CC50 at 24 h (AC50 (uM) modified / 1000): > 90 µM

CN1CCC(=C2c3ccccc3C=Cc3ccccc32)CC1 [Cyproheptadine]
CC50 at 24 h (AC50 (uM) modified / 1000): 12.2 µM

CC(=O)Nc1ccc(N)cc1 [4-Aminoacetanilide]
CC50 at 24 h (AC50 (uM) modified / 1000): > 90 µM

O=C(CBr)OCc1ccccc1 [Benzyl bromoacetate]
CC50 at 24 h (AC50 (uM) modified / 1000): > 90 µM

CCCCN(CCCC)CCCCCCN(CCCC)CCCC [N,N,N',N'-Tetrabutyl-1,6-hexanediamine]
CC50 at 24 h (AC50 (uM) modified / 1000): > 90 µM

C[C@H]1COc2c(C3(N)CC3)c(F)cc3c(=O)c(C(=O)O)cn1c23 [Pazufloxacin]
CC50 at 24 h (AC50 (uM) modified / 1000): > 50 µM

O=S(=O)(Cl)c1c(Cl)cccc1Cl [2,6-Dichlorobenzenesulfonylchloride]
CC50 at 24 h (AC50 (uM) modified / 1000): > 90 µM

Cc1cc(Cc2ccc(N)c(C)c2)ccc1N [4,4'-Diamino-3,3'-dimethyldiphenylmethane]
CC50 at 24 h (AC50 (uM) modified / 1000): > 90 µM

O=[N+]([O-])c1cc(Cl)c(Cl)cc1Cl [2,4,5-Trichloronitrobenzene]
CC50 at 24 h (AC50 (uM) modified / 1000, Tox21_110001=Tox21_200937, viability, 1 nM T3 present, 24 h): > 90 µM

CC1=C2[C@H](/C=C(\C)C(=O)O)CC[C@@H](C)[C@H]2CC1 [Valerenic acid]
CC50 at 24 h (AC50 (uM) modified / 1000): > 100 µM

Cc1cc(NC(=O)C(=O)O)cc(C)c1Oc1ccc(O)c2c1CCC2 [CP-634384]
CC50 at 24 h (AC50 (uM) modified / 1000): > 90 µM

C[C@H](CN1CCOCC1)C(C(=O)N1CCCC1)(c1ccccc1)c1ccccc1 [Dextromoramide tartrate]
CC50 at 24 h (AC50 (uM) modified / 1000, Tox21_110001=Tox21_112829, viability, 1 nM T3 present, 24 h): > 100 µM

COc1c(C)c2c(c(O)c1C/C=C(\C)CCC(=O)OCCN1CCOCC1)C(=O)OC2 [Mycophenolate mofetil]
CC50 at 24 h (AC50 (uM) modified / 1000): 1.07 µM

C[C@H]1C(=O)O[C@@H]2CCN3CC=C(COC(=O)[C@](C)(O)[C@]1(C)O)[C@H]23 [Monocrotaline]
CC50 at 24 h (AC50 (uM) modified / 1000): > 90 µM

Oc1noc2c1CCNC2 [Gaboxadol]
CC50 at 24 h (AC50 (uM) modified / 1000): > 50 µM

CC1=C(/C=C/C(C)=C/C=C/C(C)=C/C(=O)Oc2c(C)c(C)c3c(c2C)CC[C@@](C)(CCC[C@H](C)CCC[C@H](C)CCCC(C)C)O3)C(C)(C)CCC1 [Tretinoin tocoferil]
CC50 at 24 h (AC50 (uM) modified / 1000): > 50 µM

COC(=O)c1ccccc1CS(=O)(=O)NC(=O)Nc1nc(OC)cc(OC)n1 [Bensulfuron-methyl]
CC50 at 24 h (AC50 (uM) modified / 1000): > 90 µM

C=CC1=C(C)c2cc3[nH]c(cc4nc(cc5[nH]c(cc1n2)c(C)c5CCC(=O)O)C(CCC(=O)O)=C4C)c(C)c3C=C [Protoporphyrin disodium]
CC50 at 24 h (AC50 (uM) modified / 1000): > 50 µM

CC1CS(=O)(=O)CCN1/N=C/c1ccc([N+](=O)[O-])o1 (stereo not shown) [Nifurtimox]
CC50 at 24 h (AC50 (uM) modified / 1000): 8.46 µM

CC(=O)c1ccccc1 [Acetophenone]
CC50 at 24 h (AC50 (uM) modified / 1000): > 90 µM

COc1cc(Cl)c(OC)cc1Cl [Chloroneb]
CC50 at 24 h (AC50 (uM) modified / 1000, Tox21_110001=Tox21_300739, viability, 1 nM T3 present, 24 h): > 90 µM

CN1CCN2c3ccccc3Cc3ccccc3C2C1 (stereo not shown) [Mianserin]
CC50 at 24 h (AC50 (uM) modified / 1000): 20.6 µM

CC1(C)[C@H](C(=O)OCc2coc(Cc3ccccc3)c2)[C@@H]1/C=C1\CCSC1=O [Kadethrin]
CC50 at 24 h (AC50 (uM) modified / 1000): > 90 µM

CCCn1c(=O)[nH]c(=O)c2[nH]cnc21 [Enprofylline]
CC50 at 24 h (AC50 (uM) modified / 1000): > 50 µM

COc1ccc(C)cc1N [2-Methoxy-5-methylaniline]
CC50 at 24 h (AC50 (uM) modified / 1000): > 90 µM

CC(C)C1=CC2=CC[C@@H]3[C@](C)(CCC[C@@]3(C)C(=O)O)[C@H]2CC1 [Sodium abietate]
CC50 at 24 h (AC50 (uM) modified / 1000): 74.3 µM

COc1ccc(C=O)cc1 [4-Methoxybenzaldehyde]
CC50 at 24 h (AC50 (uM) modified / 1000): > 90 µM

Cc1cccc(C)c1NC(=O)C1CCCCN1C (stereo not shown) [Mepivicaine hydrochloride]
CC50 at 24 h (AC50 (uM) modified / 1000): > 50 µM

CCC[C@@H]1C[C@@H](C(=O)N[C@@H]([C@H]2O[C@H](SC)[C@H](OP(=O)(O)O)[C@@H](O)[C@H]2O)[C@H](C)Cl)N(C)C1 [Clindamycin phosphate]
CC50 at 24 h (AC50 (uM) modified / 1000): > 50 µM

CCCCc1ccc(N)cc1 [4-Butylaniline]
CC50 at 24 h (AC50 (uM) modified / 1000): > 90 µM

O=C1CC[C@@H](C(=O)N2CSC[C@H]2C(=O)O)N1 [Pidotimod] ([pGlu]-[Thz]-OH)
CC50 at 24 h (AC50 (uM) modified / 1000): > 50 µM

CC(C)C1(C)N=C(c2nc3ccccc3cc2C(=O)O)NC1=O (stereo not shown) [Imazaquin]
CC50 at 24 h (AC50 (uM) modified / 1000): > 90 µM

c1ccc(CN2CCNCC2)cc1 [1-Benzylpiperazine difumarate]
CC50 at 24 h (AC50 (uM) modified / 1000, Tox21_110001=Tox21_112882, viability, 1 nM T3 present, 24 h): > 200 µM

O=C(O)c1ccc(S(=O)(=O)O)cc1C(=O)O [4-Sulfophthalic acid]
CC50 at 24 h (AC50 (uM) modified / 1000): > 90 µM

From paper PMC6792352, “Limited Chemical Structural Diversity Found to Modulate Thyroid Hormone Receptor in the Tox21 Chemical Library” (Environmental Health Perspectives, 2019)
